Measurements reported in article PMC8632988, “Inhibition of SYK and cSrc kinases can protect bone and cartilage in preclinical models of osteoarthritis and rheumatoid arthritis” (Scientific Reports, 2021).

Tests used:
mongrel rats, AIA model = test: Adjuvant-induced arthritis in rats; type: in vivo; conditions: for Animal death / The increase in the volume of the paws relative to the initial level: Diclofenac 8 mg/kg QD intragastric
Method: Rat adjuvant-induced arthritis (AIA) model was performed at Pharmenterprises, Russia as described previously^3 and approved by Ethics Committee of Pharmenterprises. Male 10 week old mongrel rats were divided into eleven groups: negative control (#1), positive control (#2) and nine treatment groups (#3–11), ten […] in each group. Group #1 was left intact, while subplantar injection of 0.1 mL of Complete Freund’s adjuvant (CFA, Sigma) was made on day 0 at right paws of rats in groups […]. […] Disease progression was monitored by measuring volumes of the right (involved) and left (non-involved) paws on days 0, 14, 18, 21, 25, and 28.

[1] = test system: Wistar rats, MIA osteoarthritis model; test: Monosodium iodoacetate induced osteoarthritis in rats; type: in vivo, rat
Method: Monosodium iodoacetate (MIA) osteoarthritis model was performed at Pharmenterprises, Russia according to the known procedure[32] and approved by Ethics Committee of Pharmenterprises. Male 10 week old Wistar rats were divided into eight groups: negative control (#1), positive control (#2) and six treatment groups (#3–8), ten rats in each group. Group #1 was left intact while rats in groups #2–8 were anesthetized on the day 0 with intraperitoneal injection of Zoletil and Xylazine mixture and given a single intra-articular injection of MIA through the infrapatellar ligament of the right knee. Rats were treated as follows: (#1, #2) 0.5% solution of methylcellulose in PBS (pH = 3) as vehicle control, (#3, #5) 100 mg/kg MT-SYK-03, (#4, #6) 500 mg/kg MT-SYK-03, (#7) 50 mg/kg nalgesin and (#8) 0.1 mg/kg zoledronic acid. Rats in groups #1–4 received treatment intragastrically QD, 25 and 1 h before the MIA injection, and then daily until the end of the study on the day 28. Rats in groups #5–6 received treatment intragastrically QD from the day 7 until the end of the study. Rats in group #7 were treated QD starting on the day 14 and until the end of the study. Finally, rats in group #8 were treated subcutaneously immediately after the MIA injection and then every third day until the study end. Disease progression was monitored by measuring mechanical hyperalgesia, mechanical allodynia and grip strength of hind paws on the days 14, 21, and 28, just before the treatment, and 1, 3, 6 h after it.

[2] = test system: Sprague-Dowley rats, medial meniscal tear (MMT) model; test: Surgically induced meniscal tear OA in rats; type: in vivo, rat; conditions: 0.1 mg/kg subcutaneously once every three days, day 21
Method: Medial meniscal tear (MMT) model was performed at Pharmenterprises, Russia according to the published procedure[31] and approved by Ethics Committee of Pharmenterprises. Male 4-month old Sprague-Dowley rats were anesthetized with Zoletil (Vibrac, France) and Xylazine (Interchemie werken "De Adelaar" BV, Netherlands) mixture. The medial collateral ligament was transected, and the medial meniscus was grasped with a hemostat and reflected proximally toward the femur. The meniscus was transected and then skin was closed with sutures. 60–90 min after surgery rats were subcutaneously injected with flexoprofen (VIC GROUP, Russia). Treatment groups (20 rats each) were intragastrically treated with MT-SYK-03 (100 and 500 mg/kg) or vehicle control (0.5% methylcellulose solution) 24 h before OA induction and then once daily for 21 day. Active control group was subcutaneously injected with zoledronic acid (0.1 mg/kg) 24 h before OA induction and then once every three days for 21 day. After 21 day animals were sacrificed; surgically operated right knee was removed and used for image analysis.

[3] = Zoledronic acid 0.1 mg/kg, 0–28 days once three days, 14 day, 1 hour after admin.
[4] = Zoledronic acid 0.1 mg/kg, 0–28 days once three days, 14 day, 3 hours after admin.
[5] = Zoledronic acid 0.1 mg/kg, 0–28 days once three days, 21 day, 1 hour after admin.
[6] = Zoledronic acid 0.1 mg/kg, 0–28 days once three days, 21 day, 3 hours after admin.
[7] = Zoledronic acid 0.1 mg/kg, 0–28 days once three days, 28 day, 1 hour after admin.
[8] = Zoledronic acid 0.1 mg/kg, 0–28 days once three days, 28 day, 3 hours after admin.

Structure (SMILES): O=C(O)Cc1ccccc1Nc1c(Cl)cccc1Cl [diclofenac, reference compound]
- Animal death (mongrel rats, AIA model; 14 days): 0%
- Animal death (mongrel rats, AIA model; 18 days): 0%
- Animal death (mongrel rats, AIA model; 21 days): 10%
- Animal death (mongrel rats, AIA model; 25 days): 20%
- Animal death (mongrel rats, AIA model; 28 days): 20%
- The increase in the volume of the paws relative to the initial level (mongrel rats, AIA model; non-involved paws, 14 days): 14.28±0.98& %
- The increase in the volume of the paws relative to the initial level (mongrel rats, AIA model; non-involved paws, 18 days): 22.01±2.42& %
- The increase in the volume of the paws relative to the initial level (mongrel rats, AIA model; non-involved paws, 21 days): 22.85±2.82& %
- The increase in the volume of the paws relative to the initial level (mongrel rats, AIA model; non-involved paws, 25 days): 19.99±2.76& %
- The increase in the volume of the paws relative to the initial level (mongrel rats, AIA model; non-involved paws, 28 days): 20.8±3.06& %
- Volume of non-involved paws (mongrel rats, AIA model; rat AIA, diclofenac, day 28): no statistically significant effect
- Rats died (mongrel rats, AIA model; rat AIA, sodium diclofenac): 20%
- The increase in the volume of the paws relative to the initial level (mongrel rats, AIA model; treated paws, 14 days): 85.1 ± 8.01 & n = 10%
- The increase in the volume of the paws relative to the initial level (mongrel rats, AIA model; treated paws, 18 days): 90.16 ± 9.34 & n = 10%
- The increase in the volume of the paws relative to the initial level (mongrel rats, AIA model; treated paws, 21 days): 89.64 ± 9.99 & n = 9%
- The increase in the volume of the paws relative to the initial level (mongrel rats, AIA model; treated paws, 25 days): 88.04 ± 12.52 &. n = 8%
- The increase in the volume of the paws relative to the initial level (mongrel rats, AIA model; treated paws, 28 days): 92.37 ± 13.78 & n=8%

Structure (SMILES): O=P(O)(O)C(O)(Cn1ccnc1)P(=O)(O)O [zoledronic acid, reference compound]
- hind paws grip strength [1, 3]: 60.4 ± 10.4 & % from the initial one
- mechanical allodynia pain threshold [1, 3]: 100.6±8 & % from the initial one
- mechanical hyperalgesia [1, 3]: 68.1 ± 6.3 & % from the initial one
- hind paws grip strength [1, 4]: 75.4 ± 7.7 & % from the initial one
- mechanical allodynia pain threshold [1, 4]: 101.3±12.3 & % from the initial one
- mechanical hyperalgesia [1, 4]: 68.3 ± 3.5 & % from the initial one
- hind paws grip strength [1, 5]: 96 ± 6.8 % from the initial one
- mechanical allodynia pain threshold [1, 5]: 108.2±7.9 & % from the initial one
- mechanical hyperalgesia [1, 5]: 85.6 ± 5.6 % from the initial one
- hind paws grip strength [1, 6]: 84.3 ± 7.5 % from the initial one
- mechanical allodynia pain threshold [1, 6]: 106.8±6.5 & % from the initial one
- mechanical hyperalgesia [1, 6]: 83.4 ± 5.2 % from the initial one
- hind paws grip strength [1, 7]: 92.8 ± 7.6 % from the initial one
- mechanical allodynia pain threshold [1, 7]: 112.4±8.6 & % from the initial one
- mechanical hyperalgesia [1, 7]: 81.8 ± 3.7 & % from the initial one
- hind paws grip strength [1, 8]: 93.9 ± 15.5 % from the initial one
- mechanical allodynia pain threshold [1, 8]: 126.6±15.4 & % from the initial one
- mechanical hyperalgesia [1, 8]: 84.2 ± 7.4 % from the initial one
- hind paws grip strength ([1]; rat MIA, days 14, 21, 28): stable statistically significant improvements, but only on day 28
- Mechanical hyperalgesia pain threshold ([1]; rat MIA, reference drugs): positive effects, but they were statistically significant only on days 21 and 28
- mechanical allodynia pain threshold ([1]; rat MIA, reference drugs): increased the pain threshold
- Lesion area [2]: 25.3 ± 2.2^& %
- Lesion depth [2]: 50.5 ± 7.1%
